Experimental data: patent publication US10544146B2, “Bicyclic compounds and their use as antibacterial agents and β-lactamase inhibitors” (priority 2011, dated 2020)

Columns and labels:
Format in all cases: cell-based
[1] = system: E. coli JMI 4080; test: MIC, antibacterial and synergistic activity; conditions: substance alone; for MIC: Escherichia coli, JMI4080, E. coli JMI 4080, Tem-10
[2] = system: K. pneumo JMI 4088; test: MIC, antibacterial and synergistic activity; conditions: substance alone
[3] = system: E. coli JMI 10768; test: MIC, antibacterial and synergistic activity; conditions: substance alone; for MIC: Escherichia coli, JMI10768
[4] = system: E. coli JMI 2665; test: MIC, antibacterial and synergistic activity; conditions: for MIC: Escherichia coli, JMI2665, read-out: MIC alone; for MIC alone: substance alone
[5] = system: K. pneumo JMI 2681; test: MIC, antibacterial and synergistic activity; conditions: substance alone
[6] = system: K. pneumo JMI 2674; test: MIC, antibacterial and synergistic activity; conditions: substance alone
[7] = system: E. coli JMI 4103; test: MIC, antibacterial and synergistic activity; conditions: substance alone; for MIC: Escherichia coli, JMI4103
[8] = system: K. pneumo JMI 4106; test: MIC, antibacterial and synergistic activity; conditions: K. pneumo JMI 4106, KPC-3, TEM-1, SHV-12, SHV-141; substance alone
[9] = system: K. pneumo JMI 2673; test: MIC, antibacterial and synergistic activity; conditions: substance alone
[10] = system: E. cloacae JMI 36; test: MIC, antibacterial and synergistic activity; conditions: substance alone; for MIC: Enterobacter cloacae, JMI36
Experimental: (§1) In the Tables 10-12, compounds of the present invention were tested in combination with various antibiotics against metallo β-lactamase producing bacteria.

[11] = system: K. pneumo JMI 2697; test: MIC, antibacterial and synergistic activity; conditions: substance alone
Experimental: as §1

[12] = system: K. pneumo JMI 2693; test: MIC, antibacterial and synergistic activity; conditions: substance alone
Experimental: as §1

[13] = system: K. pneumo JMI 2699; test: MIC, antibacterial and synergistic activity; conditions: substance alone
Experimental: as §1

[14] = system: E. coli JMI 10767; test: MIC, antibacterial and synergistic activity; conditions: substance alone; for MIC: Escherichia coli, JMI10767
Experimental: as §1

[15] = system: E. coli JMI 2692; test: MIC, antibacterial and synergistic activity; conditions: substance alone; for MIC: Escherichia coli, JMI2692
Experimental: as §1

[16] = system: A. baumanii JMI 2659; test: MIC, antibacterial and synergistic activity; conditions: substance alone; for MIC: Acinetobacter baumannii, JMI2659
Experimental: as §1

[17] = system: E. coli JMI 2671; test: MIC, antibacterial and synergistic activity; conditions: substance alone; for MIC: Escherichia coli, JMI2671, E. coli JMI 2671, VIM-19 (Cpase)
Experimental: as §1

[18] = system: E. coli ATCC 25922; test: MIC, antibacterial and synergistic activity
Experimental: as §1

[19] = system: P. aerug JMI 149; test: MIC, antibacterial and synergistic activity; conditions: substance alone
Experimental: as §1

[20] = system: E. coli JMI 10770; test: MIC, antibacterial and synergistic activity; conditions: substance alone; for MIC: Escherichia coli, JMI10770
[21] = system: K. pneumo JMI 4109; test: MIC, antibacterial and synergistic activity; conditions: substance alone
[22] = system: P. aerug JMI 2686; test: MIC, antibacterial and synergistic activity; conditions: substance alone
[23] = system: E. coli JMI 11103; test: MIC, antibacterial and synergistic activity; conditions: substance alone; for MIC: Escherichia coli, JMI11103, E. coli JMI 11103, CTX-M15 (Intermediate ESBL)
[24] = system: metallo β-lactamase producing bacteria; test: MIC in combination with various antibiotics against metallo β-lactamase producing bacteria (Tables 10-12); conditions: substance alone
Experimental: as §1

[25] = K. pneumo JMI 4088, KPC-3 (Cpase)
[26] = E. coli JMI 10768, CTX-M15 (Weak ESBL)
[27] = K. pneumo JMI 2681, Oxa-48 (Cpase)
[28] = K. pneumo JMI 2674, CTX-M15 (ESBL)
[29] = E. coli JMI 4103, KPC-2, Tem-1, CMY-Type
[30] = K. pneumo JMI 2673, CTX-M14 (ESBL)
[31] = K. pneumo JMI 2697, IMP-4 (Cpase)
[32] = K. pneumo JMI 2693, NDM-1 (Cpase)
[33] = K. pneumo JMI 2699, VIM-1, CTX-M3
[34] = E. coli JMI 2692, NDM-1, TEM-1, CTX-M-15
[35] = A. baumanii JMI 2659, Ges-14 (Cpase)
[36] = Escherichia coli, ATCC25922, E. coli ATCC 25922, enzyme Wt; substance alone
[37] = E. coli JMI 10770, CTX-M15 (Hyper ESBL)
[38] = K. pneumo JMI 4109, SHV-1, SHV-12
[39] = P. aerug JMI 2686, KPC-2 (Cpase)

Structure (SMILES): O=C(NNC(=O)[C@H]1CC[C@H]2CN1C(=O)N2OS(=O)(=O)O)C1CNC1 (stereo in doubt) [Ex. 67, (2R,5S)-N′-(azetidin-3-ylcarbonyl)-7-oxo-6-(sulfooxy)-1,6-diazabicyclo[3.2.1]octane-2-carbohydrazide]
- MIC [1]: 16 µg/mL
- MIC [2, 25]: 16 µg/mL
- MIC [3, 26]: > 16 µg/mL
- MIC [4]: 8 µg/mL
- MIC [5, 27]: > 16 µg/mL
- MIC [6, 28]: > 16 µg/mL
- MIC [7, 29]: 16 µg/mL
- MIC [8]: 8 µg/mL
- MIC [9, 30]: > 16 µg/mL
- MIC ([10]; E. cloacae JMI 36, P99): > 16 µg/mL
- MIC [11, 31]: 16 µg/mL
- MIC [12, 32]: > 16 µg/mL
- MIC [13, 33]: > 16 µg/mL
- MIC ([14]; E. coli JMI 10767, Wt): > 16 µg/mL
- MIC [15, 34]: 8 µg/mL
- MIC [16, 35]: > 16 µg/mL
- MIC [17]: > 16 µg/mL
- MIC [18, 36]: > 16 µg/mL
- MIC ([19]; P. aerug JMI 149, Bla+++D+): 16 µg/mL
- MIC [20, 37]: > 16 µg/mL
- MIC [21, 38]: 4 µg/mL
- MIC [22, 39]: 16 µg/mL
- MIC [23]: > 16 µg/mL

Structure (SMILES): C[C@@H](O)[C@H]1C(=O)N2C(C(=O)O)=C(S[C@@H]3CN[C@H](C(=O)N(C)C)C3)[C@H](C)[C@H]12 [Meropenem, meropenem]
- MIC alone ([24]; Citrobacter freundii isolate 49469, NDM-1): 16 µg/mL
- MIC alone ([24]; Enterobacter aerogenes isolate 8397, VIM-1): 64 µg/mL
- MIC alone ([24]; Enterobacter aerogenes isolate 47683, VIM-12): 8 µg/mL
- MIC alone ([24]; Enterobacter cloacae isolate 4, VIM-6): 2 µg/mL
- MIC alone ([24]; Enterobacter cloacae isolate 10, IMP-26): 16 µg/mL
- MIC alone ([24]; Enterobacter cloacae isolate 25, IMP-4): 16 µg/mL
- MIC alone ([24]; Enterobacter cloacae isolate 1068, VIM-2): 2 µg/mL
- MIC alone ([24]; Enterobacter cloacae isolate 1471, VIM-1): 2 µg/mL
- MIC alone ([24]; Enterobacter cloacae isolate 1874, IMP-21): 4 µg/mL
- MIC alone ([24]; Enterobacter cloacae isolate 3686, IMP-1): 8 µg/mL
- MIC alone ([24]; Enterobacter cloacae isolate 53477, NDM-1): 32 µg/mL
- MIC alone ([24]; Escherichia coli isolate 13, IMP-1): 4 µg/mL
- MIC alone ([24]; Escherichia coli isolate 17, NDM-1): 32 µg/mL
- MIC alone ([24]; Escherichia coli isolate 49, NDM-1): 8 µg/mL
- MIC alone ([24]; Escherichia coli isolate 53749, NDM-1): 64 µg/mL
- MIC alone ([24]; Klebsiella oxytoca isolate 24825, IMP-26): 32 µg/mL
- MIC alone ([24]; Klebsiella oxytoca isolate 31141, VIM-23): 2 µg/mL
- MIC alone ([24]; Klebsiella pneumoniae isolate 16, VIM-5): 8 µg/mL
- MIC alone ([24]; Klebsiella pneumoniae isolate 38, NDM-1): 32 µg/mL
- MIC alone ([24]; Providencia stuartii isolate 26582, VIM-1): 1 µg/mL
- MIC alone ([24]; Serratia marcescens isolate 35, IMP-4): 8 µg/mL
- MIC alone ([24]; Serratia marcescens isolate 36098, IMP-19): 8 µg/mL
- MIC alone ([1]; E. coli JMI 4080, Tem-10): ≤1 µg/mL
- MIC alone ([1]; E. coli JMI 4080, enzyme Tem-10): ≤1 µg/mL
- MIC alone [2, 25]: 512 µg/mL
- MIC alone ([2]; K. pneumo JMI 4088, enzyme KPC-3 (Cpase)): 512 µg/mL
- MIC alone [3, 26]: ≤1 µg/mL
- MIC alone ([3]; E. coli JMI 10768, enzyme CTX-M15 (Weak ESBL)): ≤1 µg/mL
- MIC alone ([4]; E. coli JMI 2665, CMY-2 (Plasmid Cpase)): ≤1 µg/mL
- MIC alone ([4]; E. coli JMI 2665, enzyme CMY-2 (Plasmid Cpase)): ≤1 µg/mL
- MIC alone [5, 27]: 64 µg/mL
- MIC alone ([5]; K. pneumo JMI 2681, enzyme Oxa-48 (Cpase)): 64 µg/mL
- MIC alone [6, 28]: ≤1 µg/mL
- MIC alone ([6]; K. pneumo JMI 2674, enzyme CTX-M15 (ESBL)): ≤1 µg/mL
- MIC alone [7, 29]: 64 µg/mL
- MIC alone ([7]; E. coli JMI 4103, enzyme KPC-2, Tem-1, CMY-Type): 64 µg/mL
- MIC alone [9, 30]: ≤1 µg/mL
- MIC alone ([9]; K. pneumo JMI 2673, enzyme CTX-M14 (ESBL)): ≤1 µg/mL
- MIC alone ([10]; E. cloacae JMI 36, P99): ≤1 µg/mL
- MIC alone ([10]; E. cloacae JMI 36, enzyme P99): ≤1 µg/mL
- MIC alone [11, 31]: 64 µg/mL
- MIC alone ([11]; K. pneumo JMI 2697, enzyme IMP-4 (Cpase)): 64 µg/mL
- MIC alone [12, 32]: 8 µg/mL
- MIC alone ([12]; K. pneumo JMI 2693, enzyme NDM-1 (Cpase)): 8 µg/mL
- MIC alone [13, 33]: 32 µg/mL
- MIC alone ([13]; K. pneumo JMI 2699, enzyme VIM-1, CTX-M3): 32 µg/mL
- MIC alone ([14]; E. coli JMI 10767, Wt): ≤1 µg/mL
- MIC alone ([14]; E. coli JMI 10767, enzyme Wt): ≤1 µg/mL
- MIC alone [15, 34]: 256 µg/mL
- MIC alone ([15]; E. coli JMI 2692, enzyme NDM-1, TEM-1, CTX-M-15): 256 µg/mL
- MIC alone [16, 35]: 64 µg/mL
- MIC alone ([16]; A. baumanii JMI 2659, enzyme Ges-14 (Cpase)): 64 µg/mL
- MIC alone ([17]; E. coli JMI 2671, VIM-19 (Cpase)): 64 µg/mL
- MIC alone ([17]; E. coli JMI 2671, enzyme VIM-19 (Cpase)): 64 µg/mL
- MIC alone ([18]; E. coli ATCC 25922, enzyme Wt; substance alone): 0.06 µg/mL
- MIC alone ([18]; E. coli ATCC 25922; enzyme Wt; substance alone): 0.06 µg/mL
- MIC alone ([19]; P. aerug JMI 149, Bla+++D+): 4 µg/mL
- MIC alone ([19]; P. aerug JMI 149, enzyme Bla+++D+): 4 µg/mL
- MIC alone [20, 37]: ≤1 µg/mL
- MIC alone ([20]; E. coli JMI 10770, enzyme CTX-M15 (Hyper ESBL)): ≤1 µg/mL
- MIC alone [21, 38]: ≤1 µg/mL
- MIC alone ([21]; K. pneumo JMI 4109, enzyme SHV-1, SHV-12): ≤1 µg/mL
- MIC alone [22, 39]: 512 µg/mL
- MIC alone ([22]; P. aerug JMI 2686, enzyme KPC-2 (Cpase)): 512 µg/mL
- MIC alone ([23]; E. coli JMI 11103, CTX-M15 (Intermediate ESBL)): ≤1 µg/mL
- MIC alone ([23]; E. coli JMI 11103, enzyme CTX-M15 (Intermediate ESBL)): ≤1 µg/mL

Structure (SMILES): O=C(NNC(=O)[C@H]1CC[C@H]2CN1C(=O)N2OS(=O)(=O)O)C1CC1 (stereo in doubt) [Ex. 47, (2R,5S)-N′-(cyclopropylcarbonyl)-7-oxo-6-(sulfooxy)-1,6-diazabicyclo[3.2.1]octane-2-carbohydrazide]
- MIC [1]: 4 µg/mL
- MIC [2, 25]: > 16 µg/mL
- MIC [3, 26]: 16 µg/mL
- MIC [4]: 2 µg/mL
- MIC [5, 27]: > 16 µg/mL
- MIC [6, 28]: > 16 µg/mL
- MIC [7, 29]: 2 µg/mL
- MIC [8]: 16 µg/mL
- MIC [9, 30]: > 16 µg/mL
- MIC ([10]; E. cloacae JMI 36, P99): > 16 µg/mL
- MIC [11, 31]: > 16 µg/mL
- MIC [12, 32]: > 16 µg/mL
- MIC [13, 33]: 16 µg/mL
- MIC ([14]; E. coli JMI 10767, Wt): 8 µg/mL
- MIC [15, 34]: 8 µg/mL
- MIC [16, 35]: > 16 µg/mL
- MIC [17]: 8 µg/mL
- MIC [18, 36]: > 16 µg/mL
- MIC ([19]; P. aerug JMI 149, Bla+++D+): > 16 µg/mL
- MIC [20, 37]: 8 µg/mL
- MIC [21, 38]: 2 µg/mL
- MIC [22, 39]: > 16 µg/mL
- MIC [23]: 16 µg/mL
